Measured values taken from PubChem BioAssay (NCI).
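Cells were grown in 96-well plates and exposed to each compound for 48 hours at five concentrations; endpoints were interpolated linearly between bracketing concentrations, or set to the highest concentration if not reached. TGI denotes the concentration required for complete inhibition of growth.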

Assays:
Test in all cases: growth of human tumour cells (NCI), 48 h
SF-268 CNS = system: SF-268 CNS
BT-549 breast = system: BT-549 breast
HCT-116 colon = system: HCT-116 colon
SNB-19 CNS = system: SNB-19 CNS
CAKI-1 renal = system: CAKI-1 renal
NCI/ADR-RES ovarian = system: NCI/ADR-RES ovarian
SK-MEL-28 melanoma = system: SK-MEL-28 melanoma
OVCAR-4 ovarian = system: OVCAR-4 ovarian
UACC-257 melanoma = system: UACC-257 melanoma
K-562 leukemia = system: K-562 leukemia
MDA-MB-435 = system: MDA-MB-435
HOP-92 NSCLC = system: HOP-92 NSCLC
OVCAR-3 ovarian = system: OVCAR-3 ovarian
SK-OV-3 ovarian = system: SK-OV-3 ovarian
A549 NSCLC = system: A549 NSCLC
SW-620 colon = system: SW-620 colon
UO-31 renal = system: UO-31 renal
NCI-H23 lung = system: NCI-H23 lung
MDA-MB-231 breast = system: MDA-MB-231 breast
LOX IMVI melanoma = system: LOX IMVI melanoma
HS 578T breast = system: HS 578T breast
U251 CNS = system: U251 CNS
NCI-H226 lung = system: NCI-H226 lung
SR leukemia = system: SR leukemia
SK-MEL-2 melanoma = system: SK-MEL-2 melanoma
NCI-H460 lung = system: NCI-H460 lung
A498 renal = system: A498 renal
SF-295 CNS = system: SF-295 CNS
COLO 205 colon = system: COLO 205 colon
MCF7 breast = system: MCF7 breast
HCC-2998 colon = system: HCC-2998 colon
ACHN renal = system: ACHN renal
HCT-15 colon = system: HCT-15 colon
RPMI-8226 leukemia = system: RPMI-8226 leukemia
PC-3 prostate = system: PC-3 prostate
M14 melanoma = system: M14 melanoma
786-0 renal = system: 786-0 renal
EKVX NSCLC = system: EKVX NSCLC
OVCAR-8 ovarian = system: OVCAR-8 ovarian
MOLT-4 leukemia = system: MOLT-4 leukemia
OVCAR-5 ovarian = system: OVCAR-5 ovarian
KM12 colon = system: KM12 colon
NCI-H522 lung = system: NCI-H522 lung
MDA-N = system: MDA-N
CCRF-CEM leukemia = system: CCRF-CEM leukemia
HL-60(TB) leukemia = system: HL-60(TB) leukemia
IGROV1 ovarian = system: IGROV1 ovarian
SN12C renal = system: SN12C renal
TK-10 renal = system: TK-10 renal
HT29 colon = system: HT29 colon
SNB-75 CNS = system: SNB-75 CNS
HOP-62 NSCLC = system: HOP-62 NSCLC
SK-MEL-5 melanoma = system: SK-MEL-5 melanoma
MALME-3M melanoma = system: MALME-3M melanoma
UACC-62 melanoma = system: UACC-62 melanoma
T-47D breast = system: T-47D breast
SF-539 CNS = system: SF-539 CNS
DU-145 prostate = system: DU-145 prostate
RXF 393 renal = system: RXF 393 renal

O=C(Nc1ccccc1)c1cc(S(=O)(=O)Nc2n[nH]c(=O)[nH]2)c(SSc2cc(Cl)c(C(=O)Nc3ccccc3)cc2S(=O)(=O)Nc2n[nH]c(=O)[nH]2)cc1Cl
TGI (SF-268 CNS): > 100 µM | TGI (BT-549 breast): > 100 µM | TGI (HCT-116 colon): > 100 µM | TGI (SNB-19 CNS): > 100 µM | TGI (CAKI-1 renal): > 100 µM | TGI (NCI/ADR-RES ovarian): > 100 µM | TGI (SK-MEL-28 melanoma): > 100 µM | TGI (OVCAR-4 ovarian): > 100 µM | TGI (UACC-257 melanoma): > 100 µM | TGI (K-562 leukemia): > 100 µM | TGI (MDA-MB-435): > 100 µM | TGI (HOP-92 NSCLC): > 100 µM | TGI (OVCAR-3 ovarian): > 100 µM | TGI (SK-OV-3 ovarian): > 100 µM | TGI (A549 NSCLC): > 100 µM | TGI (SW-620 colon): > 100 µM | TGI (UO-31 renal): > 100 µM | TGI (NCI-H23 lung): > 100 µM | TGI (MDA-MB-231 breast): > 100 µM | TGI (LOX IMVI melanoma): > 100 µM | TGI (HS 578T breast): > 100 µM | TGI (U251 CNS): > 100 µM | TGI (NCI-H226 lung): > 100 µM | TGI (SR leukemia): > 100 µM | TGI (SK-MEL-2 melanoma): > 100 µM | TGI (NCI-H460 lung): > 100 µM | TGI (A498 renal): > 100 µM | TGI (SF-295 CNS): > 100 µM | TGI (COLO 205 colon): > 100 µM | TGI (MCF7 breast): > 100 µM | TGI (HCC-2998 colon): > 100 µM | TGI (ACHN renal): > 100 µM | TGI (HCT-15 colon): > 100 µM | TGI (RPMI-8226 leukemia): > 100 µM | TGI (PC-3 prostate): > 100 µM | TGI (M14 melanoma): > 100 µM | TGI (786-0 renal): > 100 µM | TGI (EKVX NSCLC): > 100 µM | TGI (OVCAR-8 ovarian): > 100 µM | TGI (MOLT-4 leukemia): > 100 µM | TGI (OVCAR-5 ovarian): > 100 µM | TGI (KM12 colon): > 100 µM | TGI (NCI-H522 lung): > 100 µM | TGI (MDA-N): > 100 µM | TGI (CCRF-CEM leukemia): > 100 µM | TGI (HL-60(TB) leukemia): > 100 µM | TGI (IGROV1 ovarian): > 100 µM | TGI (SN12C renal): > 100 µM | TGI (TK-10 renal): > 100 µM | TGI (HT29 colon): > 100 µM | TGI (SNB-75 CNS): > 100 µM | TGI (HOP-62 NSCLC): > 100 µM | TGI (SK-MEL-5 melanoma): > 100 µM | TGI (MALME-3M melanoma): > 100 µM

O=C1c2cc([N+](=O)[O-])cnc2S(=O)(=O)N1c1ccc(Br)cc1
TGI (SF-268 CNS): > 100 µM | TGI (BT-549 breast): > 100 µM | TGI (HCT-116 colon): > 100 µM | TGI (SNB-19 CNS): > 100 µM | TGI (CAKI-1 renal): > 100 µM | TGI (NCI/ADR-RES ovarian): > 100 µM | TGI (SK-MEL-28 melanoma): > 100 µM | TGI (OVCAR-4 ovarian): > 100 µM | TGI (UACC-257 melanoma): > 100 µM | TGI (MDA-MB-435): > 100 µM | TGI (HOP-92 NSCLC): > 100 µM | TGI (OVCAR-3 ovarian): > 100 µM | TGI (SK-OV-3 ovarian): > 100 µM | TGI (A549 NSCLC): > 100 µM | TGI (SW-620 colon): > 100 µM | TGI (UO-31 renal): > 100 µM | TGI (NCI-H23 lung): > 100 µM | TGI (MDA-MB-231 breast): > 100 µM | TGI (LOX IMVI melanoma): > 100 µM | TGI (HS 578T breast): > 100 µM | TGI (U251 CNS): > 100 µM | TGI (NCI-H226 lung): > 100 µM | TGI (SR leukemia): > 100 µM | TGI (SK-MEL-2 melanoma): > 100 µM | TGI (NCI-H460 lung): > 100 µM | TGI (SF-295 CNS): > 100 µM | TGI (COLO 205 colon): > 100 µM | TGI (MCF7 breast): > 100 µM | TGI (UACC-62 melanoma): > 100 µM | TGI (HCC-2998 colon): > 100 µM | TGI (ACHN renal): > 100 µM | TGI (T-47D breast): > 100 µM | TGI (HCT-15 colon): > 100 µM | TGI (RPMI-8226 leukemia): > 100 µM | TGI (PC-3 prostate): > 100 µM | TGI (SF-539 CNS): > 100 µM | TGI (M14 melanoma): > 100 µM | TGI (786-0 renal): > 100 µM | TGI (EKVX NSCLC): > 100 µM | TGI (OVCAR-8 ovarian): > 100 µM | TGI (MOLT-4 leukemia): > 100 µM | TGI (OVCAR-5 ovarian): > 100 µM | TGI (DU-145 prostate): > 100 µM | TGI (KM12 colon): > 100 µM | TGI (NCI-H522 lung): > 100 µM | TGI (MDA-N): > 100 µM | TGI (CCRF-CEM leukemia): > 100 µM | TGI (HL-60(TB) leukemia): > 100 µM | TGI (IGROV1 ovarian): > 100 µM | TGI (SN12C renal): > 100 µM | TGI (TK-10 renal): > 100 µM | TGI (HT29 colon): > 100 µM | TGI (SNB-75 CNS): > 100 µM | TGI (HOP-62 NSCLC): > 100 µM | TGI (SK-MEL-5 melanoma): > 100 µM | TGI (MALME-3M melanoma): > 100 µM

O=C1CSC(c2cccc(Cl)c2)N1c1c(O)c(Cl)cc(Br)c1Cl (centres undefined)
TGI (SF-268 CNS): > 100 µM | TGI (HCT-116 colon): 28.8 µM | TGI (SNB-19 CNS): > 100 µM | TGI (CAKI-1 renal): > 100 µM | TGI (NCI/ADR-RES ovarian): > 100 µM | TGI (SK-MEL-28 melanoma): > 100 µM | TGI (OVCAR-4 ovarian): 28.1 µM | TGI (UACC-257 melanoma): 67.4 µM | TGI (K-562 leukemia): > 100 µM | TGI (MDA-MB-435): 31.9 µM | TGI (HOP-92 NSCLC): 29.9 µM | TGI (OVCAR-3 ovarian): 33.4 µM | TGI (SK-OV-3 ovarian): > 100 µM | TGI (A549 NSCLC): > 100 µM | TGI (SW-620 colon): 32.7 µM | TGI (UO-31 renal): 28.9 µM | TGI (NCI-H23 lung): > 100 µM | TGI (MDA-MB-231 breast): 27.5 µM | TGI (LOX IMVI melanoma): 29.8 µM | TGI (HS 578T breast): > 100 µM | TGI (U251 CNS): 72.3 µM | TGI (NCI-H226 lung): > 100 µM | TGI (SR leukemia): 70.6 µM | TGI (SK-MEL-2 melanoma): 29 µM | TGI (NCI-H460 lung): > 100 µM | TGI (A498 renal): > 100 µM | TGI (SF-295 CNS): > 100 µM | TGI (COLO 205 colon): 61.2 µM | TGI (MCF7 breast): 29 µM | TGI (UACC-62 melanoma): 56.9 µM | TGI (ACHN renal): 27.9 µM | TGI (T-47D breast): 41.7 µM | TGI (HCT-15 colon): 28.3 µM | TGI (RPMI-8226 leukemia): 39.4 µM | TGI (PC-3 prostate): > 100 µM | TGI (SF-539 CNS): > 100 µM | TGI (M14 melanoma): > 100 µM | TGI (RXF 393 renal): 35.7 µM | TGI (786-0 renal): 71.7 µM | TGI (EKVX NSCLC): > 100 µM | TGI (MOLT-4 leukemia): 57.9 µM | TGI (OVCAR-5 ovarian): > 100 µM | TGI (DU-145 prostate): > 100 µM | TGI (KM12 colon): > 100 µM | TGI (MDA-N): 34.1 µM | TGI (CCRF-CEM leukemia): 44.8 µM | TGI (HL-60(TB) leukemia): 51.8 µM | TGI (SN12C renal): > 100 µM | TGI (TK-10 renal): > 100 µM | TGI (HT29 colon): > 100 µM | TGI (SNB-75 CNS): > 100 µM | TGI (HOP-62 NSCLC): > 100 µM | TGI (SK-MEL-5 melanoma): > 100 µM | TGI (MALME-3M melanoma): > 100 µM
